Assay results as given in publication PMC8550792, “Evolution of kinase polypharmacology across HSP90 drug discovery” (Cell Chemical Biology, 2021).

Assays:
Assay in all cases: biochemical
Format in all cases: biochemical
382 unique human kinases [1] = molecular target: T1, 382 unique human kinases (Homo sapiens, UniProt Q15831); conditions: LKB1, compound at 10 uM, duplicate values; for remaining activity at 10 µM: read-out: % Enzyme Activity (relative to DMSO controls)
T1 construct: purchased Reaction Biology (HotSpot contract assay)
T1 sequence (Q15831 1-433): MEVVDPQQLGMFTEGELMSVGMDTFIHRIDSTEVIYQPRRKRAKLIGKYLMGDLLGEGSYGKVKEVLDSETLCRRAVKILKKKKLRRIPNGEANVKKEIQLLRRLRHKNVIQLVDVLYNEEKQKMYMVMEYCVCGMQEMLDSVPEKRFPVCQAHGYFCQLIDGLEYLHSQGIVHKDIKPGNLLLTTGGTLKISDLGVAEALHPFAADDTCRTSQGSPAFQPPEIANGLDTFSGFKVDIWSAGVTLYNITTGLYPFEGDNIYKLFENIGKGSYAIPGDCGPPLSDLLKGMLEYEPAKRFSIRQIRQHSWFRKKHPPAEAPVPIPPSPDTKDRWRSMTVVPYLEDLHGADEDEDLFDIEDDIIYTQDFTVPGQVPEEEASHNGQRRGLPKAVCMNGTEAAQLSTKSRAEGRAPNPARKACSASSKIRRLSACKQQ

382 unique human kinases [2] = molecular target: T2, 382 unique human kinases (Homo sapiens, UniProt P08922, G2032R); conditions: ROS1 (G2032R), 10 uM; for remaining activity at 10 µM: read-out: % Enzyme Activity (relative to DMSO controls)
T2 construct: purchased Reaction Biology (HotSpot contract assay)
T2 sequence (P08922 28-2347 G2032R): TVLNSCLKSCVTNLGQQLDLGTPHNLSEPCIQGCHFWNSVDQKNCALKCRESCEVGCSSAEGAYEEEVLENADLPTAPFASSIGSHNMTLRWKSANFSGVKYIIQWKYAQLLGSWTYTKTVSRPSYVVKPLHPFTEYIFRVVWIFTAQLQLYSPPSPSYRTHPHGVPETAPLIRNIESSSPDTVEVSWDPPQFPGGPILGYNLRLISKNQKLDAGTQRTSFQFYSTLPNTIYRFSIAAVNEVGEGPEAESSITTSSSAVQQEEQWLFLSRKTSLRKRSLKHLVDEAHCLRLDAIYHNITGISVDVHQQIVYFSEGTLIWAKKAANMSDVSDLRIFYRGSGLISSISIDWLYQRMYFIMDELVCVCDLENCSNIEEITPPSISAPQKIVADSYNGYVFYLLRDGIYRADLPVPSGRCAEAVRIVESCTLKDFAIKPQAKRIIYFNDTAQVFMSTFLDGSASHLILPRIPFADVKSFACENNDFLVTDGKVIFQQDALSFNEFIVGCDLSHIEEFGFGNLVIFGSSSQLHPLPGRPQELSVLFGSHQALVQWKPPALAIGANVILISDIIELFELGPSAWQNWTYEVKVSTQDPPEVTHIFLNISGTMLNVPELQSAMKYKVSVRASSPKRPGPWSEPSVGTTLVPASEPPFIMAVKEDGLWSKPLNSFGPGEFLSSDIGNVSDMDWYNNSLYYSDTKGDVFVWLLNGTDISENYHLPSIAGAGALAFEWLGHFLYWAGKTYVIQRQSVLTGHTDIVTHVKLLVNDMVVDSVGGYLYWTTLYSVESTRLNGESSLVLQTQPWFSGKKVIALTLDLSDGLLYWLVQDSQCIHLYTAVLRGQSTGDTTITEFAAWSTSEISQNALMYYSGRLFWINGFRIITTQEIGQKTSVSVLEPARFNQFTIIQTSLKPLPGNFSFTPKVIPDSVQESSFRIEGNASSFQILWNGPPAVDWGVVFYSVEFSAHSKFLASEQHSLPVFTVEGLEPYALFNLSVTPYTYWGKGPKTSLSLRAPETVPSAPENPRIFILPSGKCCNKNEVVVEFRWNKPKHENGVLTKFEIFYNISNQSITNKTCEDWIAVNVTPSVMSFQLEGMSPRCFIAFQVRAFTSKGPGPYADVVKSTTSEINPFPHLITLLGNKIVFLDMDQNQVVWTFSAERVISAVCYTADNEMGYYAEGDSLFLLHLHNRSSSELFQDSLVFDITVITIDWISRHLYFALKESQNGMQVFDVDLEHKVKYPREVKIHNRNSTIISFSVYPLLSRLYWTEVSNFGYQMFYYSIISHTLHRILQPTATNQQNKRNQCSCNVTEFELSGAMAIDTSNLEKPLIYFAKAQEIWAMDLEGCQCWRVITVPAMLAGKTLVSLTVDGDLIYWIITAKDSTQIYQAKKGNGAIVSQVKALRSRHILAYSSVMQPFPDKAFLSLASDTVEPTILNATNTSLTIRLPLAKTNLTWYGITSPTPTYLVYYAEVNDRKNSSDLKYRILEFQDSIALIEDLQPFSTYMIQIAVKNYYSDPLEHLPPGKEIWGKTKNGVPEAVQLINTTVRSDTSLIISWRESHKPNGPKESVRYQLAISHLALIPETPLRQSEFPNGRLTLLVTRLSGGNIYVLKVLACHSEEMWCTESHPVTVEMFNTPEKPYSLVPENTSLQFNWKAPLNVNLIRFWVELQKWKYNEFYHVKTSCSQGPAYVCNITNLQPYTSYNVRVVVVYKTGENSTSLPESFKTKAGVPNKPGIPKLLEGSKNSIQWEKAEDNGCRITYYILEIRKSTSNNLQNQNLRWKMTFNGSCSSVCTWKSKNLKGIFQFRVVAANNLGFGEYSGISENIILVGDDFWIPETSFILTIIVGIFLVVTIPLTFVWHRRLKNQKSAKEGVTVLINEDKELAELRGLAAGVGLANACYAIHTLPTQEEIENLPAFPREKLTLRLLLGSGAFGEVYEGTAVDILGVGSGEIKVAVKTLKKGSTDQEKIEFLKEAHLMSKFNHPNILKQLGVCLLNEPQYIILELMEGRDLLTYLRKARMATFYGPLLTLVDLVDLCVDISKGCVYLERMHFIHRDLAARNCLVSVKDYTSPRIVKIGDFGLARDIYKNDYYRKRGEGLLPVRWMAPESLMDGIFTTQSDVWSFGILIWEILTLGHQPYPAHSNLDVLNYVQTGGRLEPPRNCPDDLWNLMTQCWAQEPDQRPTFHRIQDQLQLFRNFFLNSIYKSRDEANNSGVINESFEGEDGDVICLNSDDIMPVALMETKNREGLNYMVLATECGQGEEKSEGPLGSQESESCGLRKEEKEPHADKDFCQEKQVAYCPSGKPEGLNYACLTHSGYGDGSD

382 unique human kinases [3] = molecular target: T3, 382 unique human kinases (Homo sapiens, UniProt P00533, L861Q); conditions: kinase EGFR (L861Q), compound 10 uM; for remaining activity at 10 µM: read-out: % Enzyme Activity (relative to DMSO controls)
T3 construct: purchased Reaction Biology (HotSpot contract assay)

382 unique human kinases [4] = molecular target: T4, 382 unique human kinases (Homo sapiens, UniProt Q13043); conditions: MST1/STK4, 10 uM; for remaining activity at 10 µM: read-out: % Enzyme Activity (relative to DMSO controls)
T4 construct: purchased Reaction Biology (HotSpot contract assay)
T4 sequence (Q13043 1-487): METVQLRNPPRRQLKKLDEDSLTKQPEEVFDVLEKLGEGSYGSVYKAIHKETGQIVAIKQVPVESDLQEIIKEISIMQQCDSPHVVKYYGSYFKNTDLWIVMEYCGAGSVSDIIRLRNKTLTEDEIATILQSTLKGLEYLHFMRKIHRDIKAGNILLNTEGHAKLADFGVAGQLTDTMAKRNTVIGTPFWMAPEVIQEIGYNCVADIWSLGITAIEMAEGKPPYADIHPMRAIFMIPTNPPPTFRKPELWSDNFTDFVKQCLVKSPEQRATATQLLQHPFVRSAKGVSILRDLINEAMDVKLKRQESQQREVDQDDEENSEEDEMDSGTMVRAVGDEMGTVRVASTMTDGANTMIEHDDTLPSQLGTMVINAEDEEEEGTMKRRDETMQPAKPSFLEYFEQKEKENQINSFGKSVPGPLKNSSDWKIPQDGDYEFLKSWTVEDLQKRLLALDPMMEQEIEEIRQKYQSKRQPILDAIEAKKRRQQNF

382 unique human kinases [5] = molecular target: T5, 382 unique human kinases (Homo sapiens, UniProt Q8NG66); conditions: NEK11, compound at 10 uM, duplicate values; for remaining activity at 10 µM: read-out: % Enzyme Activity (relative to DMSO controls)
T5 construct: purchased Reaction Biology (HotSpot contract assay)
T5 sequence (Q8NG66 1-645): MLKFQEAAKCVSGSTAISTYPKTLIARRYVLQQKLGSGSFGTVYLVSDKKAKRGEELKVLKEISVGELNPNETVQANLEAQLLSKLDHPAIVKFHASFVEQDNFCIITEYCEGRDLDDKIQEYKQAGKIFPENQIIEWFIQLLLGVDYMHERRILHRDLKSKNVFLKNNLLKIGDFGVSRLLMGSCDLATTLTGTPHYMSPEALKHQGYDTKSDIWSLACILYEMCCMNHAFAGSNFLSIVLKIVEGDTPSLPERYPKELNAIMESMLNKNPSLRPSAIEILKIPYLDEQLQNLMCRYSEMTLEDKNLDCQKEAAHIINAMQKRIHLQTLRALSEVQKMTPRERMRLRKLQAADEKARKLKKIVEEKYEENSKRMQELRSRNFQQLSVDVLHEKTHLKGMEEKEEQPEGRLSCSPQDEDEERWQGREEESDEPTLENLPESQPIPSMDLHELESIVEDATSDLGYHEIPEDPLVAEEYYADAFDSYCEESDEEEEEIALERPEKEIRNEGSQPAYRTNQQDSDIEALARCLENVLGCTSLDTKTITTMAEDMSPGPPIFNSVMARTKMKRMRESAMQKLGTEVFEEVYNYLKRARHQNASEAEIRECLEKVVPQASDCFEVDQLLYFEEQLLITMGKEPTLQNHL

382 unique human kinases [6] = molecular target: T6, 382 unique human kinases (Homo sapiens, UniProt P00533, L747S); conditions: kinase EGFR (L747S), compound 10 uM; for remaining activity at 10 µM: read-out: % Enzyme Activity (relative to DMSO controls)
T6 construct: purchased Reaction Biology (HotSpot contract assay)

382 unique human kinases [7] = molecular target: T7, 382 unique human kinases (Homo sapiens, UniProt Q13237); conditions: PKG2/PRKG2; compound at 10 uM; duplicate values; read-out: % Enzyme Activity (relative to DMSO controls)
T7 construct: purchased Reaction Biology (HotSpot contract assay)

382 unique human kinases [8] = molecular target: T8, 382 unique human kinases (Homo sapiens, UniProt P21802, R612T); conditions: FGFR2 (R612T), 10 uM; for remaining activity at 10 µM: read-out: % Enzyme Activity (relative to DMSO controls)
T8 construct: purchased Reaction Biology (HotSpot contract assay)

382 unique human kinases [9] = molecular target: T9, 382 unique human kinases (Homo sapiens, UniProt P07949, M918T); conditions: RET (M918T), 10 uM; for remaining activity at 10 µM: read-out: % Enzyme Activity (relative to DMSO controls)
T9 construct: purchased Reaction Biology (HotSpot contract assay)
T9 sequence (P07949 29-1114 M918T): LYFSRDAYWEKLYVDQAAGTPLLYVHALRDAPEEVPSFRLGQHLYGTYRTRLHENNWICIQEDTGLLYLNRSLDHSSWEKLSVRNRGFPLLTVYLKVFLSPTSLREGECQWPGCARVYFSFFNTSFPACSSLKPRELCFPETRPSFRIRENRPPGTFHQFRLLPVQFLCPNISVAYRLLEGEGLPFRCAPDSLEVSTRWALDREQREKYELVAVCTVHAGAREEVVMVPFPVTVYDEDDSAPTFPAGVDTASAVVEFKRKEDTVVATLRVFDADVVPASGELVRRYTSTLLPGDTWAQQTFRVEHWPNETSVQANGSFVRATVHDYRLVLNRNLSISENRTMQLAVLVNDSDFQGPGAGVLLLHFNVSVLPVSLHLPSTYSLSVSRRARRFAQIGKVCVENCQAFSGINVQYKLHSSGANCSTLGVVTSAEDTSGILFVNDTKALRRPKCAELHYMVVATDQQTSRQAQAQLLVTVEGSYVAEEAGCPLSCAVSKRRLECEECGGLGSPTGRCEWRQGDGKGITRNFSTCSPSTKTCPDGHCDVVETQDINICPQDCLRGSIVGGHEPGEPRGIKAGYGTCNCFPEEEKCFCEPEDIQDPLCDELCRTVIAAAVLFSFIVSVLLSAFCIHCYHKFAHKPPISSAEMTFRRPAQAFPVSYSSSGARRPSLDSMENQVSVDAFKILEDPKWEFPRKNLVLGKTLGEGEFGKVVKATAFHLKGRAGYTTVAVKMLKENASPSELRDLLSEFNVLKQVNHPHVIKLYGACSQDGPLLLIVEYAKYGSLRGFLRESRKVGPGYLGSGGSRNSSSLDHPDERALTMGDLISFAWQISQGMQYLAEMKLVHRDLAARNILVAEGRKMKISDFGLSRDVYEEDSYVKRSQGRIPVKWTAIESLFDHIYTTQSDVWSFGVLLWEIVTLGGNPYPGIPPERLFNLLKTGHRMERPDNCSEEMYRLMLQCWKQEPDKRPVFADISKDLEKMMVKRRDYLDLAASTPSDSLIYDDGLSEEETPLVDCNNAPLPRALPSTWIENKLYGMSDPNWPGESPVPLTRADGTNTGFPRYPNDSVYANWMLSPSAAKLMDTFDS

382 unique human kinases [10] = molecular target: T10, 382 unique human kinases (Homo sapiens, UniProt Q5TCY1); conditions: TTBK1, 10 uM; for remaining activity at 10 µM: read-out: % Enzyme Activity (relative to DMSO controls)
T10 construct: purchased Reaction Biology (HotSpot contract assay)

382 unique human kinases [11] = molecular target: T11, 382 unique human kinases (Homo sapiens, UniProt Q9UEE5); conditions: DRAK1/STK17A, 10 uM; for remaining activity at 10 µM: read-out: % Enzyme Activity (relative to DMSO controls)
T11 construct: purchased Reaction Biology (HotSpot contract assay)
T11 sequence (Q9UEE5 1-414): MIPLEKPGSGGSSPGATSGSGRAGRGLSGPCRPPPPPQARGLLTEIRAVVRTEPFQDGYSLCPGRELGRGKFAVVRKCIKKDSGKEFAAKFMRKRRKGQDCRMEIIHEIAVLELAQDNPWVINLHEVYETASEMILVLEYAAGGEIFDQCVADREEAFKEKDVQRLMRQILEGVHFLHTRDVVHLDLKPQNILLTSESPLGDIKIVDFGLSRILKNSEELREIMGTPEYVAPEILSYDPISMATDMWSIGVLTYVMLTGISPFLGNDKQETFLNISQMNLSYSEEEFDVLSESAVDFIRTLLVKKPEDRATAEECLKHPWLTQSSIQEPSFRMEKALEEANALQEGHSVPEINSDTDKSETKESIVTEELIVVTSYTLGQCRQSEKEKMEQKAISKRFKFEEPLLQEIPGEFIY

382 unique human kinases [12] = molecular target: T12, 382 unique human kinases (Homo sapiens, UniProt Q9UM73, F1174S); conditions: ALK (F1174S), [ATP] 20 µM, compound 10 uM; for remaining activity at 10 µM: read-out: % Enzyme Activity (relative to DMSO controls)
T12 construct: purchased Reaction Biology (HotSpot contract assay)
T12 sequence (Q9UM73 19-1620 F1174S): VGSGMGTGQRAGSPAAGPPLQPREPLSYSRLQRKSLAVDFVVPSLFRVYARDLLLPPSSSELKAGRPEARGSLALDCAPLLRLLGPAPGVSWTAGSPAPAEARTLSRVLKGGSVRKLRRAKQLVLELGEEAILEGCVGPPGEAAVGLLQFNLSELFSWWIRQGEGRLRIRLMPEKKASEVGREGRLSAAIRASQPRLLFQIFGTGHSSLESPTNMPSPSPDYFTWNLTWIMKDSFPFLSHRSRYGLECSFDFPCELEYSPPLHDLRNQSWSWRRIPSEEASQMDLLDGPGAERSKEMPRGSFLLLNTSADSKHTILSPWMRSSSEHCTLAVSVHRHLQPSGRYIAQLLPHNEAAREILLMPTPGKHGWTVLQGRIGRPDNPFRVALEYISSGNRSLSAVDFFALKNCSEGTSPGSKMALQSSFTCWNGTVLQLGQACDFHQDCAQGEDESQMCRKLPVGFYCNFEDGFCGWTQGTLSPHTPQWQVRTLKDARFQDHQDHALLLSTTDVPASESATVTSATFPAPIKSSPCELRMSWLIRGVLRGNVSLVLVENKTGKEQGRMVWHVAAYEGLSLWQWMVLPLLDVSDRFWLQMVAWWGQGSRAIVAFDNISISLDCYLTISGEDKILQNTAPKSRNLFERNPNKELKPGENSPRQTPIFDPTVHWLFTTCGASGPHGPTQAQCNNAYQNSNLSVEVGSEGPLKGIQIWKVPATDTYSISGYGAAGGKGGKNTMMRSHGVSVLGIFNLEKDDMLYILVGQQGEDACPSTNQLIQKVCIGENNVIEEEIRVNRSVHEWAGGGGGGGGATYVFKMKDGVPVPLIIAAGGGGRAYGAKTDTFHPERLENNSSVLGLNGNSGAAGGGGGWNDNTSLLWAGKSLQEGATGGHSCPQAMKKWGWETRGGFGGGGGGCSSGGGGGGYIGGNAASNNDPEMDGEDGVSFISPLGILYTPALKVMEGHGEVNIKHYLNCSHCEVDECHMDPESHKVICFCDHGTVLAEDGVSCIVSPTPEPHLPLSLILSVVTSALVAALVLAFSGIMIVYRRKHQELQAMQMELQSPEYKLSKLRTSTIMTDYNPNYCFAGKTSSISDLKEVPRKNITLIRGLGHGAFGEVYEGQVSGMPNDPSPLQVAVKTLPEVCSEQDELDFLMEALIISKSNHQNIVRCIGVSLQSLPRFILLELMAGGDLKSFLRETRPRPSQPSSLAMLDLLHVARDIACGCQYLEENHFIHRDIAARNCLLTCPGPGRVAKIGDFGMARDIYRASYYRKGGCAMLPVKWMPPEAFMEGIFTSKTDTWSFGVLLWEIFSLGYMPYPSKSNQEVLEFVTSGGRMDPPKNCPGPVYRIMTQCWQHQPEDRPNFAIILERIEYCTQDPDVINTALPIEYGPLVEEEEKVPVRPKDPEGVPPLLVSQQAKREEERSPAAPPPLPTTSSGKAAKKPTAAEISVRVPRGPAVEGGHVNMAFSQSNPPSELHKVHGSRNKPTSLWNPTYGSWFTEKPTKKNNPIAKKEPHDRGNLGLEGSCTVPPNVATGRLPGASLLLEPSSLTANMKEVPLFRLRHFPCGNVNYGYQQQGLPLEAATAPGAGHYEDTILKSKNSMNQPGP

CC(C)c1cc(-c2n[nH]c(=O)n2-c2ccc3c(ccn3C)c2)c(O)cc1O [Ganetespib (STA9090)]
remaining activity at 10 µM (382 unique human kinases [1]): 110% | remaining activity at 10 µM (382 unique human kinases [2]): 66.8% | remaining activity at 10 µM (382 unique human kinases [3]): 90.9% | remaining activity at 10 µM (382 unique human kinases [4]): 73.7% | remaining activity at 10 µM (382 unique human kinases [5]): 117% | remaining activity at 10 µM (382 unique human kinases [6]): 88% | remaining activity at 10 µM (382 unique human kinases [7]): 108% | remaining activity at 10 µM (382 unique human kinases [8]): 68.6%

CC(C)c1cc(-c2n[nH]c(=O)n2-c2ccc3c(ccn3C)c2)c(O)cc1O [Ganetespib]
remaining activity at 10 µM (382 unique human kinases [9]): 97.7% | remaining activity at 10 µM (382 unique human kinases [10]): 101% | remaining activity at 10 µM (382 unique human kinases [11]): 106% | remaining activity at 10 µM (382 unique human kinases [12]): 50.7%

CCNC(=O)c1noc(-c2cc(C(C)C)c(O)cc2O)c1-c1ccc(CN2CCOCC2)cc1 [Luminespib]
% Enzyme Activity (relative to DMSO controls) (382 unique human kinases [9]): 96.83% | remaining activity at 10 µM (382 unique human kinases [9]): 97.5% | % Enzyme Activity (relative to DMSO controls) (382 unique human kinases [10]): 109.07% | remaining activity at 10 µM (382 unique human kinases [10]): 109% | % Enzyme Activity (relative to DMSO controls) (382 unique human kinases [11]): 99.90% | remaining activity at 10 µM (382 unique human kinases [11]): 99.9% | % Enzyme Activity (relative to DMSO controls) (382 unique human kinases [12]): 97.77% | remaining activity at 10 µM (382 unique human kinases [12]): 98.7%

CCNC(=O)c1noc(-c2cc(C(C)C)c(O)cc2O)c1-c1ccc(CN2CCOCC2)cc1 [Luminespib (AUY-922)]
% Enzyme Activity (relative to DMSO controls) (382 unique human kinases [1]): 103.13% | remaining activity at 10 µM (382 unique human kinases [1]): 106% | % Enzyme Activity (relative to DMSO controls) (382 unique human kinases [2]): 106.59% | remaining activity at 10 µM (382 unique human kinases [2]): 109% | % Enzyme Activity (relative to DMSO controls) (382 unique human kinases [3]): 100.91% | remaining activity at 10 µM (382 unique human kinases [3]): 104% | % Enzyme Activity (relative to DMSO controls) (382 unique human kinases [4]): 101.81% | remaining activity at 10 µM (382 unique human kinases [4]): 103% | % Enzyme Activity (relative to DMSO controls) (382 unique human kinases [5]): 100.52% | remaining activity at 10 µM (382 unique human kinases [5]): 102% | % Enzyme Activity (relative to DMSO controls) (382 unique human kinases [6]): 107.24% | remaining activity at 10 µM (382 unique human kinases [6]): 108% | remaining activity at 10 µM (382 unique human kinases [7]): 104% | % Enzyme Activity (relative to DMSO controls) (382 unique human kinases [8]): 112.07% | remaining activity at 10 µM (382 unique human kinases [8]): 114%
